In brackets after ≈: the same amount, converted by molar mass.
Conditions: buffer; pH 7.4; 200.0 µM

| Compound | solubility kinetic |
| --- | --- |
| O=C(NC1CCCCCC1)c1ccc(Br)o1 | 27.7 µg/mL (≈ 96.8 µM) |
| CCC1CCC2(CC1)NC(=O)N(CC(=O)N1CCc3ccccc31)C2=O (stereo unspecified) | 3.4 µg/mL (≈ 9.57 µM) |
| O=C(/C=C/c1ccc(Cl)c([N+](=O)[O-])c1)c1ccc(O)cc1 | 3.9 µg/mL (≈ 12.8 µM) |
| O=C(c1ccc(Sc2ccccc2)c([N+](=O)[O-])c1)N1CCOCC1 | 49.9 µg/mL (≈ 145 µM) |
| CC1(C)CC(=O)C2=C(C1)OC(N)=C(C#N)C2c1ccc[nH]1 (stereo unspecified) | > 42.5 µg/mL |
| Cn1c(N2CCOCC2)c(C=O)c2ccccc21 | > 36.6 µg/mL |
| Cc1cc(NC(=O)CN2CCN(C)CC2)no1 | 22.4 µg/mL (≈ 94 µM) |
| CCCc1ccc(OCCNC(=O)c2ccco2)cc1 | > 41 µg/mL |
| O=C1CSC(c2ccccc2)N1c1ccc(F)cc1F (stereo unspecified) | 38 µg/mL (≈ 130 µM) |
| O=C1NCCN/C1=C\C(=O)c1ccc(F)cc1 | 32.5 µg/mL (≈ 139 µM) |
| O=C(O)c1ccc(S(=O)(=O)c2ccc([N+](=O)[O-])cc2[N+](=O)[O-])cc1 | > 52.8 µg/mL |
| Clc1ccccc1Nc1nc(-c2ccncc2)nc2ccccc12 | 0.8 µg/mL (≈ 2.4 µM) |
| COC(=O)CC1=C(C(=O)OC)[C@@H](c2ccccc2[N+](=O)[O-])C(C#N)=C(N)O1 | > 56 µg/mL |
| O=C(O)C1CCCCC1C(=O)NC(c1ccccc1)c1ccccc1 (stereo unspecified) | 48.8 µg/mL (≈ 145 µM) |
| O=C(Cn1nc(Cl)nc1Cl)c1ccccc1 | > 38.4 µg/mL |
| COc1ccc(NC(=O)CSc2ccc3c(c2)OCCO3)cc1S(N)(=O)=O | > 61.6 µg/mL |
| O=C(NCC(=O)N1CCOCC1)c1ccc(Br)cc1 | > 49.1 µg/mL |
| O=C1OCCN1S(=O)(=O)Nc1ccccc1 | > 36.3 µg/mL |
| CN(C)S(=O)(=O)c1ccc(=S)[nH]c1 | 12.2 µg/mL (≈ 55.9 µM) |
| O=C(O)C1CC1C(=O)Nc1nc2c(Cl)cccc2s1 (stereo unspecified) | > 44.5 µg/mL |
| FC(F)Oc1ccc(NC(=S)NC2CCCCCCC2)cc1 | 0.7 µg/mL (≈ 2.13 µM) |
| O=C(OCc1csc(-c2ccccc2)n1)c1ccccc1O | < 0.7 µg/mL |
| COc1ccc(S(=O)(=O)N2CCN(C(=O)CC(C)C)CC2)cc1 | > 51.1 µg/mL |
| O=c1[nH]c(O)c(C=Nc2ccccc2Oc2ccccc2)c(=O)[nH]1 | 0.8 µg/mL (≈ 2.47 µM) |
| O=C1CN(O)C(c2ccccc2)=c2cc(Cl)ccc2=N1 | 37.9 µg/mL (≈ 132 µM) |

| Compound | solubility kinetic |
| --- | --- |
| Cc1ccccc1Nc1nnc(SCC(=O)NCC2CCCO2)s1 (stereo unspecified) | > 54.7 µg/mL |
| Cn1c(S(=O)(=O)O)nc2ccccc21 | 31.5 µg/mL (≈ 148 µM) |
| Cc1cccc(OCCC(=O)Nc2ccc(Cl)cc2F)c1 | < 0.7 µg/mL |
| CCOc1ccc(NC(=O)COC(=O)CN2CCCCCC2=O)cc1 | > 52.3 µg/mL |
| CCC1CN(C(=O)NCc2ccc(C)cc2)c2cc(Cl)ccc2O1 (stereo unspecified) | < 0.4 µg/mL |
| O=C1S/C(=C\c2cccs2)C(=O)N1c1ccc(O)cc1 | < 0.6 µg/mL |
| COC(=O)/C(=C\C(=O)c1ccccc1)Nc1ccc(OC)cc1 | 7.6 µg/mL (≈ 24.4 µM) |
| CC(Cc1cccs1)NCc1ccc(Cl)cc1 (stereo unspecified) | 22.6 µg/mL (≈ 85 µM) |
| COC(=O)c1c(S(=O)(=O)N2CCOCC2)c(C)n(C)c1C | > 47.5 µg/mL |
| CC1Cc2ccccc2N1C1=CC(=O)CCC1 (stereo unspecified) | > 34.1 µg/mL |
| CC(Oc1ccc(Cl)cc1)C(=O)Nc1ccccc1N1CCOCC1 (stereo unspecified) | 10.1 µg/mL (≈ 28 µM) |
| O=C(NC(N1CCOCC1)C(Cl)(Cl)Cl)c1ccc(F)cc1 (stereo unspecified) | 41.1 µg/mL (≈ 116 µM) |
| O=[N+]([O-])c1cc(C(F)(F)F)ccc1NCCc1ccccn1 | 18.8 µg/mL (≈ 60.4 µM) |
| COc1ccc(-c2csc(N(C)C(=O)c3ccco3)n2)cc1 | < 0.3 µg/mL |
| CNC(=S)NC12CC3CC(CC(C3)C1)C2 | 3.8 µg/mL (≈ 16.9 µM) |
| O=C(O)Cn1cc(C=C2C(=O)NC(=O)NC2=O)c2ccccc21 | > 47 µg/mL |
| O=C(CC12CC3CC(CC(C3)C1)C2)NCc1ccccc1 | 0.6 µg/mL (≈ 2.12 µM) |
| Cc1ccn2c(=O)cc(C)nc2c1 | > 26.1 µg/mL |
| CCn1c(SCc2ccccc2)nc2c1c(=O)[nH]c(=O)n2C | 39.3 µg/mL (≈ 124 µM) |
| CCC(C)(NC(=O)c1ccc2c(c1)OCO2)C(=O)NC1CCCCC1 (stereo unspecified) | > 52 µg/mL |
| Cn1cccc1C(=O)c1cccc([N+](=O)[O-])c1 | 14.3 µg/mL (≈ 62.1 µM) |
| Cl.c1ccc(CN2CCNCC2)nc1 | 30.1 µg/mL |
| CN1CCN(C(=O)CN(C)S(=O)(=O)c2ccc(F)cc2)CC1 | 44.7 µg/mL (≈ 136 µM) |
| Cc1csc(SCC(=O)Nc2ccc(C)c(F)c2)n1 | > 44.5 µg/mL |
| CCN(CC)c1nc(-c2ccccc2)nc2c1sc(=S)n2CC | < 0.2 µg/mL |

| Compound | solubility kinetic |
| --- | --- |
| O=C(Cc1ccccc1)Nc1ccc(C(=O)NCc2ccccc2)cc1 | < 0.4 µg/mL |
| Cc1nc(Nc2ccccc2)sc1C(=O)Nc1ccccc1 | 1.6 µg/mL (≈ 5.17 µM) |
| O=C(c1ccc2oc(CCc3ccccc3)nc2c1)N1CC[C@H](O)C1 | 41.1 µg/mL (≈ 122 µM) |
| COc1ccc(CCNS(=O)(=O)c2ccc3c(c2)CCCC3)cc1OC | 28.2 µg/mL (≈ 75.1 µM) |
| CC(C)c1cc(NCc2ccccn2)n2c(nc3ccccc32)c1C#N | < 0.1 µg/mL |
| CCOc1ccc2oc(C(=O)OCC(=O)NC(=O)NC)c(C)c2c1 | 1.9 µg/mL (≈ 5.68 µM) |
| Nc1oc2ccccc2c(=O)c1-c1ccc2c(c1)OCO2 | > 42.2 µg/mL |
| COc1ccccc1N1CCN(Cc2nc3ccccc3[nH]2)CC1 | 47.9 µg/mL (≈ 149 µM) |
| Cc1nc2ccc(NC(=O)c3ccc(Br)o3)cc2s1 | 5.1 µg/mL (≈ 15.1 µM) |
| O=C(CCNC(=O)c1ccccc1Cl)NCc1ccco1 | > 46 µg/mL |
| Cl.Cn1cccc1CNCC(O)c1ccccc1 (stereo unspecified) | > 40 µg/mL |
| Cc1ccc(NC(=O)N2CCN(c3ncccc3C(F)(F)F)CC2)cc1 | 1.5 µg/mL (≈ 4.12 µM) |
| O=C1Nc2ccccc2SC1c1ccccc1 (stereo unspecified) | 1.7 µg/mL (≈ 7.04 µM) |
| O=C1CN(C(=O)COC(=O)c2ccc(Br)o2)c2ccccc2N1 | 9.5 µg/mL (≈ 25.1 µM) |
| CCCOc1ccc(C2NC(=O)CCC2[N+](=O)[O-])cc1 (stereo unspecified) | > 41.7 µg/mL |
| COc1cc(Br)c(CC(=O)NC2CC2)cc1OC | > 47.1 µg/mL |
| CCOC(=O)c1c(C)[nH]c(C(=O)NCC(c2ccco2)N2CCCCC2)c1C (stereo unspecified) | 2 µg/mL (≈ 5.16 µM) |
| Cc1cc(SCC(=O)NC2CC2)nc2ccccc12 | > 40.9 µg/mL |
| O=C1NC2=C(C(=O)CCC2)C(c2ccccc2Cl)N1 (stereo unspecified) | 39.1 µg/mL (≈ 141 µM) |
| CC1(C(=O)NNC(=S)NCC2CCCO2)CC1(Cl)Cl (stereo unspecified) | > 48.9 µg/mL |
| Cc1ccccc1-c1noc(-c2ccccc2C(=O)NCC2CCCO2)n1 (stereo unspecified) | 49.6 µg/mL (≈ 136 µM) |
| O=C(Cc1ccccc1)Nc1ccc(Cl)cn1 | 21.5 µg/mL (≈ 87.2 µM) |
| CCN(CC)CCOC(=O)C(O)(c1ccccc1)c1ccccc1.Cl | > 54.6 µg/mL |
| CC1=C(C(=O)OC2CCCC(C)C2)C(c2ccccc2)NC(=O)N1 (stereo unspecified) | 4.3 µg/mL (≈ 13.1 µM) |
| CCc1cccc(NS(=O)(=O)c2ccc3c(c2)n(C)c(=O)n3C)c1 | 3.4 µg/mL (≈ 9.84 µM) |

| Compound | solubility kinetic |
| --- | --- |
| Cc1ccccc1OCC(=O)Nc1cccc(Cl)c1C | < 0.6 µg/mL |
| CCCOc1c(Cl)cc(C(=O)NC)cc1OC | > 38.7 µg/mL |
| Cc1cc(NC(=O)C(C)SCC(=O)N(C)Cc2c(F)cccc2Cl)no1 (stereo unspecified) | > 60 µg/mL |
| O=C1CN(CC(=O)NC2CCCc3ccccc32)CCN1 (stereo unspecified) | > 43.1 µg/mL |
| Cc1ccc(C)c(NC(=S)NCCCN2CCOCC2)c1 | > 46.1 µg/mL |
| COCc1cc(=O)[nH]c(-c2csc(C)n2)n1 | > 35.6 µg/mL |
| Cc1ccc(CN(C)C(=O)CCNS(=O)(=O)c2ccccc2)o1 | > 50.5 µg/mL |
| Cc1cc(Cl)nc(Cl)c1C(=O)NCc1ccc(Cl)cc1 | 6.8 µg/mL (≈ 20.6 µM) |
| COc1ccc(NC(=O)NC(=O)c2ccccc2)cc1 | 1.3 µg/mL (≈ 4.81 µM) |
| COC(=O)c1ccc(NC(=O)Cn2c([N+](=O)[O-])cnc2C)cc1 | 28.8 µg/mL (≈ 90.5 µM) |
| COCCN=C(NS(=O)(=O)c1cccs1)c1ccccc1Cl | > 53.8 µg/mL |
| O=[N+]([O-])c1ccc(Cl)c(S(=O)(=O)n2ccnc2)c1 | > 43.2 µg/mL |
| COc1ccccc1NC(=O)C1(c2ccccc2)CCCC1 | 7.9 µg/mL (≈ 26.7 µM) |
| CCOc1ccccc1NC(=S)NCCCn1ccnc1 | 42.1 µg/mL (≈ 138 µM) |
| COc1cc(NC(=O)N[C@@H](CCSC)C(=O)O)cc(OC)c1 | > 49.3 µg/mL |
| COc1cc2c(C(=O)NCCN(C)C)cn(CC(C)C)c(=O)c2cc1OC | > 56.3 µg/mL |
| Cc1ccc(OCC(=O)N2CCN(C(=O)c3ccncc3)CC2)cc1 | > 50.9 µg/mL |
| N#Cc1ccc(OCC(=O)N2CCc3ccccc32)cc1 | 1.8 µg/mL (≈ 6.47 µM) |
| O=[N+]([O-])c1ccc(NCc2ccncc2)cc1 | > 34.4 µg/mL |
| O=C(COC(=O)C1CC1)NCc1ccccc1 | > 35 µg/mL |
| O=C(OCC(=O)N1CCOCC1)c1ccccc1O | 29.8 µg/mL (≈ 112 µM) |
| CC(C)N1CC(COc2ccc(Cl)cc2Cl)OC1=O (stereo unspecified) | > 45.6 µg/mL |
| CN(CCC#N)C(=S)Nc1ccc(F)cc1 | 32.8 µg/mL (≈ 138 µM) |
| C/C(N)=C(/C#N)C(=O)COC(=O)c1cccc(O)c1 | > 39 µg/mL |
| CCOc1ncccc1C(=O)Nc1nnc(C2CC2)s1 | > 43.6 µg/mL |

| Compound | solubility kinetic |
| --- | --- |
| CCCCNC(=O)[C@@H]1CSC2c3ccccc3C(=O)N21 (stereo partly specified) | > 43.6 µg/mL |
| CN1CCN(c2ccc(CNS(=O)(=O)Cc3ccc(Cl)cc3)cc2)CC1 | 2.8 µg/mL (≈ 7.11 µM) |
| Cc1c(C(=O)Nc2ccccc2)c2ccc(C(F)(F)F)cc2n1O | 1 µg/mL (≈ 2.99 µM) |
| O=C(Nc1ccc2c(c1)OCCO2)c1cc(F)c(F)cc1Cl | 2.8 µg/mL (≈ 8.6 µM) |
| CCOC(=O)c1cnc2c(cnn2C)c1NCCCn1ccnc1 | > 49.3 µg/mL |
| COc1ccc(OC)c(/C=C/C(=O)NC2=NCCS2)c1 | 4 µg/mL (≈ 13.7 µM) |
| Nc1nc(Nc2ccccc2)nc(NC2CCCCC2)c1[N+](=O)[O-] | < 0.1 µg/mL |
| O=C(CN1CCOCC1)NNC(=S)Nc1ccccc1 | > 44.2 µg/mL |
| COc1ccc(NC(=O)C2CCCN(S(C)(=O)=O)C2)c(OC)c1 (stereo unspecified) | > 51.4 µg/mL |
| Cc1cccc(-c2nc(C#N)c(N3CCC(C)CC3)o2)c1 | < 0.2 µg/mL |
| COc1ccc(CC(=O)OC(C)C(=O)Nc2ccc(S(N)(=O)=O)cc2)cc1 (stereo unspecified) | > 58.9 µg/mL |
| COc1ccc(C)cc1NC(=S)N1CCN(c2ncccn2)CC1 | 47.4 µg/mL (≈ 138 µM) |
| Cc1ccc(-c2cc(C(=O)N3CCC(C)CC3)c3ccccc3n2)cc1 | 6.6 µg/mL (≈ 19.2 µM) |
| CN1CCN(C(=O)N(c2ccccc2)c2ccccc2)CC1.Cl | > 49.8 µg/mL |
| CCCCCN1C(C)=CC(=C(C#N)C#N)C=C1C | 3.3 µg/mL (≈ 13.7 µM) |
| Cc1ccc(CNc2ccc(N3CCOCC3)cc2)cc1 | > 42.4 µg/mL |
| COC(=O)c1ccsc1NC(=O)CCc1ccccc1 | 9.6 µg/mL (≈ 33.2 µM) |
| O=C(Nc1ccc(Cl)cc1)Nc1ccc(Oc2cccnc2)nc1 | 0.7 µg/mL (≈ 2.05 µM) |
| Cc1c(C(=O)Nc2nccs2)oc2ccc(Br)cc12 | 2 µg/mL (≈ 5.93 µM) |
| COCCn1c(N)c(Sc2ccc(Cl)cc2)c(=O)[nH]c1=O | 47.4 µg/mL (≈ 145 µM) |
| O=C(CNC(=O)c1ccc2ccccc2c1)NCc1ccc(F)cc1 | 1.9 µg/mL (≈ 5.65 µM) |

Source: PubChem BioAssay AID1996
